Measurements reported in article PMC10303900, “Discovery of a New Chalcone-Trimethoxycinnamide Hybrid with Antimitotic Effect: Design, Synthesis, and Structure—Activity Relationship Studies” (Pharmaceuticals, 2023).
Read-outs that look alike come from different tables or passages of the source.

Legend:
HCT116 cells [1] = assay: Immunofluorescence of mitotic spindle morphology (anti-α-tubulin); type: cell-based, human; conditions: HCT116, GI50 of the compound, 24 h
Description: To understand the mechanism behind the induction of mitotic arrest after treatment with the compound 7, we treated HCT116 cells with the GI50 of the compound. Twenty-four hours later, we performed an immunofluorescence assay using an anti-α-tubulin antibody to visualize the spindle morphology.
Cells were treated as for DAPI staining. After methanol fixation, cells were blocked with 10% FBS in PBST (0.05% Tween-20 in PBS) for 30 min at room temperature, followed by 1 h incubation with a primary antibody (mouse anti-α-tubulin, 1:2500, Sigma-Aldrich Co., Ltd., Gillingham, UK) diluted in 5% FBS in PBST. Then, cells were washed three times in PBST and incubated with an Alexa Fluor 488 conjugated secondary antibody (1:1500, Molecular Probes, Eugene, OR, USA). DNA was stained with DAPI.

MCF-7 = assay: SRB growth inhibition assay, breast adenocarcinoma cells; type: cell-based; conditions: Homo sapiens, MCF7, 48 h
Description: (§1) A sulforhodamine B (SRB) assay was performed to evaluate the in vitro growth inhibitory activity of all synthesized hybrids, as well as intermediates in the human tumor cell lines of melanoma (A375-C5), breast adenocarcinoma (MCF-7), and colorectal carcinoma (HCT116), as well as on the non-tumor Human Pulmonary Alveolar Epithelial cell line (HPAEpiC). The concentration inducing 50% cell growth inhibition (GI50), was calculated. […] The overall results prompt us to further investigate the mechanism behind the cytotoxic activities of compounds 6, 7, and 13 in colorectal tumor cells. Moreover, in silico studies were performed, aiming to screen for drug-likeness.
(§2) A375-C5 (melanoma) and MCF-7 (breast adenocarcinoma) cell lines were obtained from the European Collection of Cell Culture, UK, and were grown in RPMI-1640 medium (Roswell Park Memorial Institute, Biochrom, Cambridge, UK) with 5% inactivated FBS (fetal bovine serum, Biochrom). HCT-116 (colon adenocarcinoma) cells were grown in DMEM medium (Dulbecco’s Modified Eagle’s, Biochrom) with 5% inactivated FBS. The non-tumor human pulmonary alveolar epithelial cells (HPAEpiC) were obtained from ScienCell Research Laboratories and grown in DMEM medium supplemented with 10% FBS and 1% non-essential amino acids (Sigma-Aldrich Co., Saint Louis, MO, USA). All cell lines were maintained in a humidified incubator (Hera Cell, Heraeus, Hanau, Germany) at 37 °C and with 5% CO2, and cell viability was regularly monitored using the exclusion trypan blue dye.
(§3) A total of 5.0 × 10^4 A375-C5, MCF-7, and HCT-116 cells, or 6.0 × 10^4 HPAEpiC cells were seeded in 96-well plates and incubated at 37 °C and 5% CO2 to allow for cell attachment. After 24 h, cells were treated with two-fold serial dilutions of test compounds (0–150 µM), or with DMSO as the compound solvent. In parallel, cells in a time-zero (T0) plate, without treatment, were fixed with 50% (m/v) trichloroacetic acid (TCA, Merck Millipore, Darmstadt, Germany), for 1 h at 4 °C, and then washed with distilled water and left to dry. Forty-eight hours after compound treatment, cells were fixed with 50% TCA and stained with SRB (Sigma-Aldrich Co., Ltd., Gillingham, UK) for 30 min at room temperature, followed by 5 rounds of washing with 1% (v/v) acetic acid (Merck Milli-pore, Darmstadt, Germany). SRB–protein complexes were then solubilized with […] Tris buffer (Sigma-Aldrich Co., Ltd., Gillingham, UK) for 30 min, and the absorbance was measured at 515 nm in a microplate reader (Biotek Synergy 2, BioTek Instruments, Inc., Winooski, VT, USA). A dose-response curve was obtained for each cell line, and the concentration that caused 50% cell growth inhibition (GI50) was calculated.

HCT116 (HCT116 p53+/+) = assay: SRB growth inhibition assay, colorectal carcinoma cells; type: cell-based; conditions: Homo sapiens, HCT-116
Description: as §1, §2, §3

HCT116 cells [2] = assay: Apoptosis detection via flow cytometry (Annexin V-FITC/PI); type: cell-based, human; conditions: HCT116, 48 h, vs untreated or DMSO
Description: Double labeling with annexin V-FITC and propidium iodide dyes was used to detect cells going through apoptotic events, using a flow cytometer in order to obtain insights into the mechanism by which compounds 6, 7, and 13 generate antiproliferative activity against colorectal carcinoma cells. For that, HCT116 cells were exposed to each compound for 48 h.
To evaluate apoptotic cell death, the “Annexin V-FITC Apoptosis Detection Kit” (eBioscience, Vienna, Austria) was used according to the manufacturer’s instructions. Briefly, 1.2 × 10^5 cells/well were seeded into 6-well plates, and 24 h later, cells were treated with compounds 6, 7, and 13. After 48 h, floating and adherent cells were collected, pelleted via centrifugation (1000 rpm, 5 min), and suspended in binding buffer. Annexin V-FITC was added and incubated for 10 min, protected from light. Cells were washed and resuspended in binding buffer, and 20 μg/mL of propidium iodide (PI) was added. Fluorescence was assessed using the BD Accuri™ C6 Plus flow cytometer (BD Biosciences, Qume Drive, San Jose, CA, USA), and the data were analyzed with the BD Accuri TM C6 Plus software (version 1.0.27.1, San Jose, CA, USA). At least 20,000 events per sample were collected.

p53–MDM2 interaction = target: T1, p53–MDM2 interaction (Homo sapiens, UniProt Q00987); assay: Yeast targeted screening assay of p53–MDM2 interaction; conditions: 10 μM, yeast cell-based assay, data not shown
T1 construct: expressed in transfected cells; host or cells: Saccharomyces cerevisiae strain CG379
T1 sequence (Q00987 whole entry): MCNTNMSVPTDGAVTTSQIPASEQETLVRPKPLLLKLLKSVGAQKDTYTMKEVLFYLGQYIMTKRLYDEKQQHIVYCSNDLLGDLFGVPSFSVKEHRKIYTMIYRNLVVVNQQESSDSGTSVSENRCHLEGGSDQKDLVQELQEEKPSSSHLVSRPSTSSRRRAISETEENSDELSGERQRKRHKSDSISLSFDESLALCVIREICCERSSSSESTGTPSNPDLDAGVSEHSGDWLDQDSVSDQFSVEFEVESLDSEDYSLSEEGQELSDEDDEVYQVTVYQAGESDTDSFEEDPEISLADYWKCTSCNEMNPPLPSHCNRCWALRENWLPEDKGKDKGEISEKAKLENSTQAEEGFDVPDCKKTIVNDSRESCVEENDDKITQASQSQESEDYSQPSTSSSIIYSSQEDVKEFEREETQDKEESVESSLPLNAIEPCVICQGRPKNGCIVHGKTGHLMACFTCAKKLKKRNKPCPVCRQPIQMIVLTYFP
Description: However, since CM-M345 (1) has been previously reported as a p53-MDM2 inhibitor by our research group, the effect of 10 μM of compounds 6, 7, and 13 on the p53–MDM2 interaction was analyzed using yeast cell-based assays.
Saccharomyces cerevisiae (strain CG379) expressing human wt p53 alone and combined with human MDM2 were obtained in previous works. For the expression of human proteins (routinely grown in minimal selective medium), cells were diluted to 0.05 OD600 in selective induction medium containing 2% (w/w) galactose, 1% (w/w) raffinose, 0.7% (w/w) yeast nitrogen base without amino acids from Difco (Quilaban, Sintra, Portugal), and all the amino acids required for yeast growth ([…]) except leucine and tryptophan. Yeast cells were incubated at 30 °C under continuous orbital shaking (200 rpm) with 10 µM compounds or 0.1% DMSO only, for approximately 42 h (time required by the control yeast, co-transformed with the empty vectors and incubated with DMSO only, to achieve 0.4 OD600). Yeast growth was analyzed by counting the number of colony-forming units (CFU) after 2 days of incubation at 30 °C on Sabouraud Dextrose Agar from Liofilchem (Frilabo, Porto, Portugal).

HCT116 p53−/− = assay: SRB growth inhibition assay, p53 knocked-out colorectal cells; type: cell-based, human
Description: as §3

HPAEpiC = assay: SRB growth inhibition assay, non-tumor pulmonary alveolar epithelial cells; type: cell-based; conditions: Homo sapiens, Epithelial cell, 48 h
Description: as §1, §2, §3

A375-C5 = assay: Sulforhodamine B (SRB) growth inhibition assay, melanoma cells; type: cell-based; conditions: Homo sapiens, 48 h
Description: as §1, §2, §3

- GI50 (MCF-7): > 75 µM
- GI50 (HCT116 (HCT116 p53+/+); SRB, 48 h, read-out: GI50 HCT116): 3.26 ± 1.39 µM
- GI50 (HCT116 (HCT116 p53+/+); Table 2, 48 h, read-out: GI50 HCT116 p53+/+): 3.26 ± 1.39 µM
- SI, selective index (GI50 of HCT116 p53−/−/GI50 of HCT116 p53+/+) (HCT116 p53−/−): 0.40
- GI50 (HCT116 p53−/−; Homo sapiens, HCT-116, Table 2, 48 h): 1.3 ± 0.09 µM
- GI50 (A375-C5): 32.1 ± 1.27 µM
SMILES: CCCc1c(OCCNC(=O)/C=C/c2cc(OC)c(OC)c(OC)c2)ccc(C(=O)/C=C/c2cc(OC)c(OC)c(OC)c2)c1O [Compound 7, (E)-N-(2-(3-hydroxy-2-propyl-4-((E)-3-(3,4,5-trimethoxyphenyl)acryloyl)phenoxy)ethyl)-3-(3,4,5-trimethoxyphenyl)acrylamide]
- Cells with collapsed (monopolar-like) mitotic spindles (HCT116 cells [1]): 91.41 ± 4.87%
- Percentage of bipolar spindles (HCT116 cells [1]): 6.57 ± 2.13%
- Apoptosis induction (Annexin V-positive cells) (HCT116 cells [2]): induces apoptotic tumor cell death
- Effect on the p53–MDM2 interaction (reversal of the negative growth effect of MDM2 on p53) (p53–MDM2 interaction): none of the tested compounds significantly reversed the negative inhibitory growth effect of MDM2 on p53
- GI50 (HPAEpiC): 57.2 ± 8.68 µM
